Publication PMC7521041 (Current Genomics, 2020)

Target: T1, Alr0765 (Nostoc sp. PCC 7120 = FACHB-418, UniProt A0ACD7RPC9)
T1 sequence (A0ACD7RPC9 1-204): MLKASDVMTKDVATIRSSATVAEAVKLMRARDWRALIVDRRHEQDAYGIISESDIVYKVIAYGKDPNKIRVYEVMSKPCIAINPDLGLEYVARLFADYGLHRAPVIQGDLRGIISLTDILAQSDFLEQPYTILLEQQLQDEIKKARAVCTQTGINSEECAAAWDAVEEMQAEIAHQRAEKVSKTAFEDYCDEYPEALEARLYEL
Test: FTIR amide I conformational change
Format: binding
Details: 3 mM ligand, 1.3 mM protein, pH 8.0, 25 C

Structure (SMILES)	FTIR amide I conformational change
Nc1ncnc2c1ncn2[C@@H]1O[C@H](COP(=O)(O)O)[C@@H](O)[C@H]1O [AMP]	Alr0765 binds with adenosyl ligands, which led to conformational changes
NC(=O)C1=CN([C@@H]2O[C@H](COP(=O)(O)OP(=O)(O)OC[C@H]3O[C@@H](n4cnc5c(N)ncnc54)[C@H](O)[C@@H]3O)[C@@H](O)[C@H]2O)C=CC1 [NADH]	Alr0765 binds with adenosyl ligands, which led to conformational changes
Nc1ncnc2c1ncn2[C@@H]1O[C@H](COP(=O)(O)OP(=O)(O)O)[C@@H](O)[C@H]1O [ADP]	Alr0765 binds with adenosyl ligands, which led to conformational changes
